Laboratory results published in paper PMC10721329, “Quisinostat is a brain-penetrant radiosensitizer in glioblastoma” (JCI Insight, 2023).
Where “and” joins values, the source holds several entries; their conditions need not be identical. Identical values can stand only once.

Experiments:
[1] = cited from earlier work
[2] = Stability in mouse brain homogenate (perfused, non-perfused) at 37°C; type: in vitro ADME; details: 100 nM; for [QST], % of control: mouse brain homogenate, 37 C; for [QST], % of control / raw response (Data Point): replicates; for %stability ([QST], % of control, Mean) / raw response, Mean / raw response (Data Point): mouse brain, 37C
Description: Hydroxamic acid–based compounds have been reported to display poor stability and high plasma clearance due to the presence of arylesterases and carboxylesterases in rodent blood ([34]). Therefore, we measured the stability of QST in mouse plasma and brain to determine whether drug degradation occurred during our sample preparations and equilibrium dialyses for the determination of unbound drug level (performed at 37°C). […] QST degradation was also observed in mouse brain homogenate (Figure 6B). However, perfusion of mice before brain collection prevented rapid drug degradation in the brain matrix. […] Degradation of QST can also be constrained if plasma and brain samples are processed at 4°C (Supplemental Figure 4A). All subsequent sample preparations were therefore performed on ice-cold baths to avoid degradation of QST in our PK analyses. […] The observed stability is probably due to the absence of esterases in human matrices, which are responsible for degradation of QST ([34]). Because we employed QST in several in vitro studies (Figures 1–4), the stability of the molecule was also tested in the cell media used to culture GSCs (neurobasal medium; see Methods).
Stability Study in Mouse Plasma, Mouse Brain, Human Plasma, Human Brain, and Neural […]
The stability of QST was determined in BALB/c mouse plasma, male nude athymic perfused and nonperfused mouse brain homogenate (1:9 w/v of PBS; pH 7.4), human brain (obtained from VRL Eurofins) homogenate (1:4 w/v of PBS; pH 7.4), pooled human plasma (Innovative Research), and neurobasal media. QST stock solutions (1 mM) were prepared in acetonitrile, subsequently diluted in a 40% methanol mixture, and added t o the matrices to make final concentrations of 100 nM or 10 nM. Then 50 or 30 µL of either plasma or brain homogenate containing QST were aliquoted into 1.5-mL microcentrifuge tubes (Eppendorf) and were incubated at either 4 °C or 37 °C for 0, 2, 4, 6, 12, or 24 hours (n = 3 at each time point). […]
Plasma and brain […]
homogenate samples were stored at −80 °C until LC-MS/MS analysis. […]

orthotopic GB126 tumors = experiment: Survival study, orthotopic GB126 PDX, QST with or without IR; type: in vivo, athymic nude mice; details: for Survival, Days Post Injection (death): GB126 PDX, individual mice; for increase of median survival versus vehicle: orthotopic GB126 PDX
Description: We additionally questioned whether QST, either alone or in combination with IR, could extend the survival of tumor-bearing mice. In this study, mice received the same treatments described above, but after completion of the 1-week IR regimen, mice continued to receive QST at 10 mg/kg or vehicle solution on MWF until study completion, as determined by large tumor burden and onset of neurological symptoms (Figure 8A). […] Although QST monotherapy slowed tumor growth, median survival for the QST-treated mice was only 4 days longer than for the vehicle-treated mice (P < 0.01), and IR alone increased median survival by 17 days (P < 0.001; Figure 8D). However, combining QST with IR led to a significant increase in median survival (37 days, P < 0.001) compared with the vehicle (Figure 8D).
Seven-week-old Foxn1^nu nude male mice (The Jackson Laboratory) were used for in vivo orthotopic transplantation of luciferized GB126 ([…]) cells (at a density of 50,000 cells/μL). All procedures were performed as described elsewhere ([11]). All mice were observed daily and were sacrificed upon the onset of severe neurological symptoms and more than 10% body weight loss. Survival data were plotted and analyzed using GraphPad Prism 8. See Supplemental Methods for detailed in vivo methods. […]
treated with 2 Gy of ionizing radiation on MWF for a total 6 Gy (3 doses). Ionizing radiation was administered with the RS2000 series biological research irradiator (Rad Source Technologies). […]
Treatment of Mice with Intracranially Implanted QST and/or Radiation
Mice with implanted tumors were allowed to grow until the tumor bioluminescence score reached […] radiance (p/s/[…]/sr). Mice were randomized into groups before treatment. For survival studies, mice underwent treatment on MWF for the entire duration of the experiment until moribund. For mice receiving IR treatment with or without QST, mice were treated with 2 […]
Gy on MWF for a total of 6 Gy in the first week of treatment. Treatment groups included vehicle (50% PEG-3000), QST (10 mg/kg) alone, 6 Gy whole-brain IR treatment with vehicle, and 6 Gy whole-brain IR treatment with 10 mg/kg QST. QST was administered to mice through intraperitoneal injections two hours prior to whole-brain radiation treatment. Upon completion of the radiation regimen, IR-treated mice subsequently received QST or vehicle alone for the rest of the experiment. Tumor growth and treatment response was monitored by IVIS bioluminescence once per week. For survival studies, mice were sacrificed, and samples were collected for PD and PK analyses once moribund 2 hours after treatment with a final dose of QST (10 mg/kg).
For short-term PK-PD correlation studies, tumor-bearing mice were randomized into groups and underwent a single week of treatment with QST (10 mg/kg) on MWF. […]

Question: Which results are given for `Cn1cc(CNCC2CCN(c3ncc(C(=O)NO)cn3)CC2)c2ccccc21` [QST, quisinostat]?
Answer: maximum-tolerated dose ([1]; patients, given 3 times weekly): 12 mg; hematologic toxicities (grade 1 and 2), share of patients ([1]; phase I trials): < 5%; [QST], % of control ([2]; Non-Perfused, 0 hours): 99.9% and 101.4% and 98.8%; [QST], % of control ([2]; Non-Perfused, 2 hours): 90.9% and 101.4% and 87.2%; [QST], % of control ([2]; Non-Perfused, 6 hours): 71.4% and 72.9% and 80.4%; [QST], % of control ([2]; Non-Perfused, 24 hours): 46.8% and 49% and 47.5%; [QST], % of control ([2]; Perfused, 0 hours): 103.7% and 102.4% and 93.9%; [QST], % of control ([2]; Perfused, 2 hours): 98.2% and 99.9%; [QST], % of control ([2]; Perfused, 6 hours): 98.2% and 97.3%; [QST], % of control ([2]; Perfused, 24 hours): 85.9% (2×) and 82.9%; %stability ([QST], % of control, Mean) ([2]; Non-perfused, 0 hrs): 100.0%; raw response, Mean ([2]; Non-perfused, 0 hrs): 267333; raw response (Data Point) ([2]; Non-perfused, 0 hrs): 267000 and 271000 and 264000; %stability ([QST], % of control, Mean) ([2]; Non-perfused, 2 hrs): 93.1%; raw response, Mean ([2]; Non-perfused, 2 hrs): 249000; raw response (Data Point) ([2]; Non-perfused, 2 hrs): 243000 and 271000 and 233000; %stability ([QST], % of control, Mean) ([2]; Non-perfused, 6 hrs): 74.9%; raw response, Mean ([2]; Non-perfused, 6 hrs): 200333; raw response (Data Point) ([2]; Non-perfused, 6 hrs): 191000 and 195000 and 215000; %stability ([QST], % of control, Mean) ([2]; Non-perfused, 24 hrs): 47.8%; raw response, Mean ([2]; Non-perfused, 24 hrs): 127667; raw response (Data Point) ([2]; Non-perfused, 24 hrs): 125000 and 131000 and 127000; %stability ([QST], % of control, Mean) ([2]; Perfused, 0 hrs): 100.0%; raw response, Mean ([2]; Perfused, 0 hrs): 236333; raw response (Data Point) ([2]; Perfused, 0 hrs): 245000 and 242000 and 222000; %stability ([QST], % of control, Mean) ([2]; Perfused, 2 hrs): 98.7%; raw response, Mean ([2]; Perfused, 2 hrs): 233333; raw response (Data Point) ([2]; Perfused, 2 hrs): 232000 and 236000; %stability ([QST], % of control, Mean) ([2]; Perfused, 6 hrs): 97.6%; raw response, Mean ([2]; Perfused, 6 hrs): 230667; raw response (Data Point) ([2]; Perfused, 6 hrs): 232000 and 230000; %stability ([QST], % of control, Mean) ([2]; Perfused, 24 hrs): 84.9%; raw response, Mean ([2]; Perfused, 24 hrs): 200667; raw response (Data Point) ([2]; Perfused, 24 hrs): 203000 and 196000; Survival, Days Post Injection (death) (orthotopic GB126 tumors; QST 10 mg/kg + IR 6 Gy): 79 days and 85 days and 83 days and 86 days and 75 days and 84 days and 82 days; Survival, Days Post Injection (death) (orthotopic GB126 tumors; QST 10 mg/kg alone): 65 days and 50 days and 49 days and 48 days and 46 days and 57 days and 54 days and 66 days; increase of median survival versus vehicle (orthotopic GB126 tumors; QST 10 mg/kg MWF + IR 6 Gy): 37 days; increase of median survival versus vehicle (orthotopic GB126 tumors; QST 10 mg/kg MWF monotherapy): 4 days
